Test results taken from EP0083750A1, “Antimycotic azolyl butanols” (BAYER AG, priority 1981, dated 1983).
≈ marks a conversion by molar mass, not a printed value.

Tests used:
[1] = tested on: Aspergillus fumig.; assay: Antimycotic in-vitro activity, serial dilution test (MIC); type: cell-based; conditions: 96 h, Reihenverdünnungstest, 5 x 10^4 Keimen/ml Substrat, Sabourand's milieu d'epreuve, 20°C, 96 Stunden, read-out: MHK-Werte in γ/ml Nährmedium, Aspergillus fumig.
Procedure: (§1) Versuchsbeschreibung: • Die in-vitro-Prüfungen wurden im Reihenverdünnungstest mit Keiminokula von durchschnittlich 5 x 10^4 Keimen/ml Substrat durchgeführt. Als Nährmedium dienten • a) für Dermatophyten und Schimmelpilze: Sabourand's milieu d'epreuve • b) für Hefen: • Fleischextrakt-Traubenzucker-Bouillon.
(§2) Die Bebrütungstemperatur betrug 20°C, die Bebrütungsdauer lag bei 24 bis 96 Stunden bei Hefen und 96 Stunden bei Dermatophyten und Schimmelpilzen.

[2] = tested on: Trichophyton mentagr.; assay: as above; type: cell-based; conditions: 96 h, Reihenverdünnungstest, 5 x 10^4 Keimen/ml Substrat, Sabourand's milieu d'epreuve, 20°C, 96 Stunden, read-out: MHK-Werte in γ/ml Nährmedium, Trichophyton mentagr.
Procedure: as §1, §2

[3] = tested on: Torulopsis glabrata; assay: as above; type: cell-based; conditions: Nakaseomyces glabratus; Reihenverdünnungstest, 5 x 10^4 Keimen/ml Substrat, Fleischextrakt-Traubenzucker-Bouillon, 20°C, 24 bis 96 Stunden; read-out: MHK-Werte in γ/ml Nährmedium, Torulopsis glabrata
Procedure: as §1, §2

[4] = tested on: Microsporum canis; assay: as above; type: cell-based; conditions: 96 h, Reihenverdünnungstest, 5 x 10^4 Keimen/ml Substrat, Sabourand's milieu d'epreuve, 20°C, 96 Stunden, read-out: MHK-Werte in γ/ml Nährmedium, Microsporum canis
Procedure: as §1, §2

[5] = tested on: Candida albicans; assay: as above; type: cell-based; conditions: Reihenverdünnungstest, 5 x 10^4 Keimen/ml Substrat, Fleischextrakt-Traubenzucker-Bouillon, 20°C, 24 bis 96 Stunden, read-out: MHK-Werte in γ/ml Nährmedium, Candida albicans
Procedure: as §1, §2

[6] = tested on: Dermatophyten, Schimmelpilze, Hefen; assay: Antimycotic in-vitro activity, serial dilution test, overall comparison with prior art; type: cell-based; conditions: in-vitro Reihenverdünnungstest
Procedure: as §1, §2

[7] = tested on: Candida-Zellen; assay: Antimycotic in-vivo activity (oral) in mouse candidosis; design: species or system Mäuse vom Typ SPF-CF1; conditions: for Wirkung (Überlebende am 6.Tag p.i.): Mäuse SPF-CF1, intravenös infiziert mit 1 - 2 x 10^6 Candida-Zellen, jeweils 50 - 100 mg/kg oral, 1 Stunde vor und 7 Stunden nach Infektion; for Wirkung im Vergleich zu den bekannten Verbindungen (A) und (B): Mäusecandidose, oral
Procedure: Antimykotische in-vivo-Wirksamkeit (oral) bei Mäusecandidose
Mäuse vom Typ SPF-CF1 wurden intravenös mit 1 - 2 x 10^6 logarithmisch wachsenden Candida-Zellen, die in physiologischer Kochsalzlösung suspendiert werden, infiziert. Eine Stunde vor und sieben Stunden nach der Infektion werden die Tiere mit jeweils 50 - 100 mg/kg Körpergewicht der Präparate oral behandelt.
Unbehandelte Tiere starben 3 bis 6 Tage post infektionem. Die Überlebensrate am 6. Tag post infektionem betrug bei unbehandelten Kontrolltieren etwa 5 %.

Compound	MIC [1]	MIC [2]	MIC [3]	MIC [4]	MIC [5]	antimykotische Wirkung im Vergleich zu den bekannten Verbindungen (A) und (B) [6]	Wirkung (Überlebende am 6.Tag p.i.) [7]	Wirkung im Vergleich zu den bekannten Verbindungen (A) und (B) [7]
C=CCC(C(O)C(C)(C)Oc1ccc(Cl)cc1)n1cncn1 (stereo not drawn) [Beispiel 56]	8 µg/mL (≈ 24.9 µM)	8 µg/mL (≈ 24.9 µM)	8 µg/mL (≈ 24.9 µM)	4 µg/mL (≈ 12.4 µM)	4 µg/mL (≈ 12.4 µM)	bessere antimykotische Wirkung		
CCC(C(O)C(C)(C)Oc1ccc(Cl)cc1)n1cncn1 (stereo not drawn) [Beispiel 57]	32 µg/mL (≈ 103 µM)	8 µg/mL (≈ 25.8 µM)	32 µg/mL (≈ 103 µM)	8 µg/mL (≈ 25.8 µM)	8 µg/mL (≈ 25.8 µM)	bessere antimykotische Wirkung		
CCCCC(C(O)C(C)(C)Oc1ccc(C(=O)OCC)cc1)n1cncn1 (stereo not drawn) [Beispiel 62]	8 µg/mL (≈ 21.3 µM)	2 µg/mL (≈ 5.33 µM)	32 µg/mL (≈ 85.2 µM)	8 µg/mL (≈ 21.3 µM)	8 µg/mL (≈ 21.3 µM)	bessere antimykotische Wirkung		
CCOC(=O)c1ccc(OC(C)(C)C(O)C(Cc2ccc(Cl)cc2Cl)n2cncn2)cc1 (stereo not drawn) [Beispiel 64]	64 µg/mL (≈ 134 µM)	4 µg/mL (≈ 8.36 µM)	64 µg/mL (≈ 134 µM)	2 µg/mL (≈ 4.18 µM)	< 1 µg/mL	bessere antimykotische Wirkung		
C=CCC(C(O)C(C)(C)Oc1ccc(Cl)cc1Cl)n1ccnc1 (stereo not drawn) [Beispiel 66]	16 µg/mL (≈ 45 µM)	4 µg/mL (≈ 11.3 µM)	4 µg/mL (≈ 11.3 µM)	8 µg/mL (≈ 22.5 µM)	< 1 µg/mL	bessere antimykotische Wirkung		
CCCCC(C(O)C(C)(C)Cc1ccc(Cl)cc1Cl)n1cncn1 (stereo not drawn) [Beispiel 81]	< 1 µg/mL	< 1 µg/mL	8 µg/mL (≈ 21.6 µM)	2 µg/mL (≈ 5.4 µM)	2 µg/mL (≈ 5.4 µM)	bessere antimykotische Wirkung		
CC(C)(Cc1ccccc1)C(O)C(Cc1ccc(Cl)cc1Cl)n1cncn1 (stereo not drawn) [Beispiel 83]	32 µg/mL (≈ 79.1 µM)	< 1 µg/mL	4 µg/mL (≈ 9.89 µM)	8 µg/mL (≈ 19.8 µM)	< 1 µg/mL	bessere antimykotische Wirkung		
CCOCC(C)(C)C(O)C(Cc1ccc(Cl)cc1Cl)n1cncn1 (stereo not drawn) [Beispiel 85]	16 µg/mL (≈ 43 µM)	4 µg/mL (≈ 10.7 µM)	4 µg/mL (≈ 10.7 µM)	8 µg/mL (≈ 21.5 µM)	< 1 µg/mL	bessere antimykotische Wirkung		
CCOCC(C)(C)C(O)C(Cc1ccc(Cl)c(Cl)c1)n1cncn1 (stereo not drawn) [Beispiel 86]	8 µg/mL (≈ 21.5 µM)	2 µg/mL (≈ 5.37 µM)	32 µg/mL (≈ 86 µM)	4 µg/mL (≈ 10.7 µM)	16 µg/mL (≈ 43 µM)	bessere antimykotische Wirkung		
COc1cccc(CC(C(O)C(C)(C)COc2ccc(Cl)cc2)n2cncn2)c1 (stereo not drawn) [Beispiel 87]	16 µg/mL (≈ 38.5 µM)	< 1 µg/mL	2 µg/mL (≈ 4.81 µM)	8 µg/mL (≈ 19.2 µM)	< 1 µg/mL	bessere antimykotische Wirkung	++ (= schwache Wirkung = 40 % Überlebende am 6.Tag p.i.)	bessere Wirkung
C=CCCC(C(O)C(C)(C)COc1ccc(Cl)c(Cl)c1)n1cncn1 (stereo not drawn) [Beispiel 95]	8 µg/mL (≈ 20.8 µM)	< 1 µg/mL	32 µg/mL (≈ 83.3 µM)	< 1 µg/mL	2 µg/mL (≈ 5.2 µM)	bessere antimykotische Wirkung		
CC(C)(COc1ccc(-c2ccccc2)cc1)C(O)Cn1ccnc1 (stereo not drawn) [Beispiel 96]	64 µg/mL (≈ 190 µM)	< 1 µg/mL	16 µg/mL (≈ 47.6 µM)	< 1 µg/mL	< 1 µg/mL	bessere antimykotische Wirkung		
CCCCC(C(O)C(C)(C)COc1ccc(-c2ccccc2)cc1)n1cncn1 (stereo not drawn) [Beispiel 100]	4 µg/mL (≈ 10.2 µM)	< 1 µg/mL	32 µg/mL (≈ 81.3 µM)	8 µg/mL (≈ 20.3 µM)	8 µg/mL (≈ 20.3 µM)	bessere antimykotische Wirkung	+++ (= Wirkung = 60 % Überlebende am 6.Tag p.i.)	bessere Wirkung
CC(C)(Cc1ccc(Cl)cc1)C(O)C(Cc1ccccc1)n1ccnc1 (stereo not drawn) [Beispiel 128]	8 µg/mL (≈ 21.7 µM)	< 1 µg/mL	8 µg/mL (≈ 21.7 µM)	16 µg/mL (≈ 43.4 µM)	< 1 µg/mL	bessere antimykotische Wirkung	++++ (= gute Wirkung = 80 % Überlebende am 6.Tag p.i.)	bessere Wirkung
